What was measured:
UCI-101 tumor xenografts = assay: Tumor xenograft size after multiple dosing (days 8, 10, 12); assay type: in vivo, nude mice; conditions: ip on days 8, 10 and 12; stilbene 5c 50 mg/kg, tirapazamine 60 mg/kg; day 14; 6 mice per group
Protocol: The long and short axes of tumor were measured to calculate tumor size and plotted against days. Each treatment group contains 6 mice.
Mice were then sacrificed at day 14. The long and short axes of tumors were measured to calculate tumor size and plotted against days. Each treatment group contains 6 mice.
Tumor cell lines used in this study include UCI-101 ovarian cancer cells and Hep3B hepatocellular carcinoma cells. Cells are grown in IMEM and DMEM, respectively, supplemented with 10% fetal bovine serum, glutamine, and penicillium/streptomycin in 5% CO2 humidified environment. When cells were grown to 80% confluent, cells were harvested with 1% trypsin and washed with phosphate-buffered saline three times before injected subcutaneously into nude mice. For mouse xenograft studies, 2×10^6 tumor cells were injected in the back subcutaneously. Nude mice were purchased from NCI Development Therapeutic Program as described. Tumor size was monitored by long and short axes (a and b, respectively) by a caliber and tumor volume was calculated by the formula ab^2/2. […] Treatment with AAA bevacizumab was done by tail vein injection at a dose of 10 mg/kg.
Next we measured the size of tumor xenografts after multiple dosing. Nude mice were injected subcutaneously with UCI-101 cells and tumor became visible after day 7. […] Tumor xenografts were measured and sizes are plotted in FIG. 7.

[1] = Weight loss in multiple dosing xenograft study; assay type: in vivo, nude mice; conditions: day 14; tirapazamine 60 mg/kg ip days 8, 10, 12 (alone or with stilbene 5c 50 mg/kg)
Protocol: Next we measured the size of tumor xenografts after multiple dosing. Nude mice were injected subcutaneously with UCI-101 cells and tumor became visible after day 7. Treatment was administered by intraperitoneal injection on days 8, 10 and 12 with 6 mice in each group. […] […]. […].

hypoxic cells = conditions: cited from earlier work
[2] = in vivo; cited from earlier work
[3] = tested on: stage IV non-small cell lung cancer; conditions: cited from earlier work
tumor = conditions: tirapazamine alone given at 70 mg/kg; cited from earlier work
[4] = cited from earlier work
UCI-101 tumor xenograft = assay: Tumor growth, stilbene 5c with or without bevacizumab; assay type: in vivo, nude mice; conditions: stilbene 5c 20 mg/kg/day Monday to Friday for two weeks; bevacizumab 10 mg/kg twice a week for 5 doses
Protocol: FIG. 4. Efficacy of stilbene 5c in vivo and enhanced effect by bevacizumab. Nude mice were injected with UCI-101 cells subcutaneously and mice are treated with stilbene 5c at 20 mg/kg/day Monday-Friday with or without bevacizumab 10 mg/kg twice a week. Tumor volume was calculated by the long and short axes. Each group contains 8 mice and the average tumor volumes and standard deviations were plotted against days.
Tumor cell lines used in this study include UCI-101 ovarian cancer cells and Hep3B hepatocellular carcinoma cells. Cells are grown in IMEM and DMEM, respectively, supplemented with 10% fetal bovine serum, glutamine, and penicillium/streptomycin in 5% CO2 humidified environment. When cells were grown to 80% confluent, cells were harvested with 1% trypsin and washed with phosphate-buffered saline three times before injected subcutaneously into nude mice. For mouse xenograft studies, 2×10^6 tumor cells were injected in the back subcutaneously. Nude mice were purchased from NCI Development Therapeutic Program as described. Tumor size was monitored by long and short axes (a and b, respectively) by a caliber and tumor volume was calculated by the formula ab^2/2. […]. Treatment with AAA bevacizumab was done by tail vein injection at a dose of 10 mg/kg.
Next we used ovarian cancer UCI101 cells to study the in vivo efficacy of stilbene 5c We first administered stilbene 5c with intraperitoneal injection at 25 mg/kg three times a week. Tumor volume was calculated by measuring the long and short axes. […] The failure could be due to the possibility that intermittent dosing leaves a viable rim of tumor, which survives the treatment of VDAs by getting nutritional and blood support from surrounding normal vasculature. When treatment with VDAs is stopped, the viable rim of tumor grows quickly. Tumor vasculature recovers quickly by recruitment of the mobilized endothelial progenitor cells. Based on this rationale, we combined stilbene 5c with bevacizumab, which was used to neutralize VEGF secreted by UCI-101 tumor cells. […]

[5] = in vivo; cited from earlier work; remark: listed apart in the source
[6] = phase I, intravenous every three weeks

Molecule | size of tumor compared with the control (UCI-101 tumor xenografts) | weight loss [1] [%] | greater toxicity to hypoxic cells compared to well-oxygenated cells (hypoxic cells) | potential side effects in animal studies [2] | response rate, overall survival, or progression free survival ([3]; tirapazamine 260-330 mg/m^2 added to carboplatin and paclitaxel vs placebo) | systemic toxicity ([3]; tirapazamine added to carboplatin and paclitaxel vs placebo) | tumor growth suppression (tumor) | tolerated dose, tirapazamine by itself ([4]; phase I and phase II trials) | dose with dose limiting toxicities (reversible ototoxicity and transient visual abnormality) [4, 6] | maximum tolerated dose (MTD) [4, 6] [mg/m^2] | tumor growth suppression (UCI-101 tumor xenograft) | half-life [5]
Nc1n[n+]([O-])c2ccccc2[n+]1[O-] [tirapazamine, 3-amino-1,2,4-benzotriazine-1,4-di-N-oxide] | about 50% | 20 | 15-200 fold | bone marrow toxicity, necrosis of the olfactory nerve, and retinal degeneration | no benefit | increased systemic toxicity | no effect | up to 390 mg/m^2 | above 330 mg/m^2 | 390 | – | –
bevacizumab: a monoclonal antibody against vascular endothelial growth factor (VEGF) [reference compound] | – | – | – | – | – | – | – | – | – | – | about 25% | over 7 days

— US10159676B2, “Induction of tumor hypoxia for cancer therapy” (Virginia Commonwealth University, priority 2008, dated 2018)
